Reference: BindingDB's records for doi:10.1016/j.bmcl.2015.12.052 (Janssen Research and Development, 2016)

Target: T1, P2X purinoceptor 7 (Rattus norvegicus, UniProt Q64663)
T1 sequence (Q64663 whole entry): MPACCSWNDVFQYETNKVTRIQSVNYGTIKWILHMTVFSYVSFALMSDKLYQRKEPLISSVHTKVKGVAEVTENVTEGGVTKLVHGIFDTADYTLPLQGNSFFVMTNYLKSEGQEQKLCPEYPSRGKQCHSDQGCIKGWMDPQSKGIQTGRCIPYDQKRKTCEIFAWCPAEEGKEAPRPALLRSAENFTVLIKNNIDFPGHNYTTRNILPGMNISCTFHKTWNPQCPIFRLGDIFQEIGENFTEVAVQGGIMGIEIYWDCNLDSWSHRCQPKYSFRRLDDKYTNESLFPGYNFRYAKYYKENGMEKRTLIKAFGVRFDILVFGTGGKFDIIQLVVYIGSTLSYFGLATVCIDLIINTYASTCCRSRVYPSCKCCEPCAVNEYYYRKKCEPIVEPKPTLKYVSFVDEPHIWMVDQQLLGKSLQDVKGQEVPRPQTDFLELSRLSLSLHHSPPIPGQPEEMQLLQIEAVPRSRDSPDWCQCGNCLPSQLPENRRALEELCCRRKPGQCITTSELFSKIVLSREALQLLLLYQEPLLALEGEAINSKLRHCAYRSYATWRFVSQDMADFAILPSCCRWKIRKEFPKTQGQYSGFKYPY
Assay: Antagonist activity at rat P2X7 receptor expressed in 1321N1 cells assessed as inhibition of Bz-ATP-induced Ca2+ flux after 30 mins by FLIPR assay

SMILES: C[C@H]1Cn2c(nnc2-c2cnccn2)C(=O)N1Cc1ccccc1 [US10047092, 79]
- IC50: > 10 µM
